Here are results for seven compounds from PubChem BioAssay (NCI).

Test systems include 786-0 renal; A549 NSCLC; COLO 205 colon; DU-145 prostate; HOP-62 NSCLC; HS 578T breast; K-562 leukemia; NCI-H226 lung; OVCAR-5 ovarian; OVCAR-8 ovarian; RXF 393 renal; SF-268 CNS; SF-539 CNS; SK-OV-3 ovarian; SN12C renal; SNB-19 CNS; SNB-75 CNS; UO-31 renal.
Experiment in all cases: inhibition of tumour cell growth, NCI panel, 48 h

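These data come from cells grown in 96-well plates and exposed to compound for 48 hours at five concentrations. TGI: total growth inhibition.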

Consider `COC(=O)C(Cc1c(C2Nc3ccccc3C2CC(NC(=O)CNC(C)=O)C(=O)OC)[nH]c2ccccc12)NC(=O)CNC(C)=O` (stereo unspecified), for which the TGI with 786-0 renal is greater than 100 µM; with A549 NSCLC, greater than 100 µM; with COLO 205 colon, greater than 100 µM; in the test on DU-145 prostate it was greater than 100 µM; in the test with HOP-62 NSCLC, greater than 69.8 µM; in the test on HS 578T breast, greater than 100 µM. Moreover, the TGI with K-562 leukemia, in the test on NCI-H226 lung, in the test on OVCAR-5 ovarian, with OVCAR-8 ovarian, in the test with RXF 393 renal and in the test on SF-268 CNS was greater than 100 µM each time. Besides, the TGI with SF-539 CNS, in the test on SK-OV-3 ovarian, with SN12C renal, with SNB-19 CNS, in the test on SNB-75 CNS and with UO-31 renal was greater than 100 µM each time.

`COc1ccc2nc3c([N+](=O)[O-])ccc4c3c(c2c1)NCCN4CCO`: the TGI in the test with 786-0 renal is 1.46 µM; in the test with A549 NSCLC it was 2.68 µM; with COLO 205 colon it was 1.74 µM; with DU-145 prostate it was 5.34 µM; in the test on HOP-62 NSCLC, 2.28 µM; in the test with HS 578T breast, 2.79 µM. The TGI in the test with K-562 leukemia turned out to be 1.08 µM; with NCI-H226 lung, 0.958 µM; in the test with OVCAR-5 ovarian, 2.95 µM; with OVCAR-8 ovarian, 2.01 µM; in the test on RXF 393 renal, 1.78 µM; with SF-268 CNS it was 6.26 µM. Moreover, the TGI amounted to 1.56 µM in the test on SF-539 CNS; 3.58 µM in the test with SK-OV-3 ovarian; 2.34 µM in the test with SN12C renal; 3.08 µM with SNB-19 CNS; 1.88 µM in the test on SNB-75 CNS; 1.47 µM in the test with UO-31 renal.

Turning to `CC[C@]12C=CCN3CC[C@@]4(c5cc(Br)c(OC)cc5N(C)[C@H]4[C@@](O)(C(=O)NN)[C@@H]1O)[C@@H]32`, the TGI in the test with 786-0 renal, in the test on A549 NSCLC, with COLO 205 colon, in the test with DU-145 prostate, with HOP-62 NSCLC and with HS 578T breast was greater than 100 µM each time. Besides, the TGI is greater than 100 µM in the test with K-562 leukemia; greater than 100 µM in the test with NCI-H226 lung; greater than 100 µM with OVCAR-5 ovarian; greater than 100 µM with OVCAR-8 ovarian; 99.2 µM in the test with RXF 393 renal; greater than 100 µM in the test with SF-268 CNS. Moreover, the TGI was 69.3 µM with SF-539 CNS; greater than 100 µM in the test on SK-OV-3 ovarian; greater than 100 µM in the test on SN12C renal; greater than 100 µM in the test with SNB-19 CNS; 43.6 µM with SNB-75 CNS; greater than 100 µM in the test on UO-31 renal.

As for `COC(=O)C1Cc2c(OC)ccc(OC)c2CC(C(=O)OC)C1=O` (stereo unspecified), the TGI in the test on 786-0 renal, with A549 NSCLC, in the test on COLO 205 colon, in the test on DU-145 prostate, in the test on HOP-62 NSCLC and with HS 578T breast was greater than 100 µM in each case. For the same compound, the TGI with K-562 leukemia, in the test on NCI-H226 lung, with OVCAR-5 ovarian, in the test with OVCAR-8 ovarian, in the test with RXF 393 renal and with SF-268 CNS was greater than 100 µM each time. Further, the TGI with SF-539 CNS, in the test with SK-OV-3 ovarian, in the test with SN12C renal, with SNB-19 CNS, with SNB-75 CNS and in the test on UO-31 renal was greater than 100 µM throughout.

As for `COC(=O)[C@]1(c2cc3ccccc3n2S(=O)(=O)c2ccccc2)CC2CN(C(C)=O)C1CC2=O` (stereo partly specified), the TGI with 786-0 renal is 2.97 µM; with A549 NSCLC, 13.1 µM; with COLO 205 colon it was 7.29 µM; with DU-145 prostate it was 11.7 µM; with HOP-62 NSCLC, 16.4 µM; in the test on HS 578T breast, greater than 43.8 µM. Besides, the TGI stood at 12.1 µM with K-562 leukemia; 10.4 µM in the test on NCI-H226 lung; 13.1 µM in the test with OVCAR-5 ovarian; 11.1 µM with OVCAR-8 ovarian; 3.39 µM with RXF 393 renal; 5.83 µM with SF-268 CNS. For the same compound, the TGI was 12.7 µM with SF-539 CNS; 21.7 µM in the test on SK-OV-3 ovarian; 8.11 µM in the test with SN12C renal; 12.5 µM in the test on SNB-19 CNS; 12.3 µM in the test with SNB-75 CNS; 3.45 µM in the test with UO-31 renal.

As to `CC(=O)OCCCOCn1c(Cc2ccccc2)c(C)c(=O)[nH]c1=O`, the TGI in the test with 786-0 renal, in the test on A549 NSCLC, with COLO 205 colon, in the test on DU-145 prostate, in the test on HOP-62 NSCLC and with HS 578T breast was greater than 100 µM in each case. Also, the TGI with K-562 leukemia, in the test with NCI-H226 lung, in the test with OVCAR-5 ovarian, in the test on OVCAR-8 ovarian, with RXF 393 renal and with SF-268 CNS was greater than 100 µM each time. Further, the TGI in the test with SF-539 CNS, in the test on SK-OV-3 ovarian, in the test with SN12C renal, in the test on SNB-19 CNS, in the test on SNB-75 CNS and in the test on UO-31 renal was greater than 100 µM each time.

On to `BrCCCCCOc1ccc(-c2c3ccccc3c(-c3ccc(OCCCCCBr)cc3)c3ccccc23)cc1`, for which the TGI with 786-0 renal, in the test with A549 NSCLC, in the test with COLO 205 colon, with DU-145 prostate, in the test on HOP-62 NSCLC and in the test on HS 578T breast was greater than 100 µM in each case. The TGI in the test with K-562 leukemia, with NCI-H226 lung, with OVCAR-5 ovarian, in the test on OVCAR-8 ovarian, in the test with RXF 393 renal and in the test with SF-268 CNS was greater than 100 µM in each case. The TGI with SF-539 CNS, with SK-OV-3 ovarian, in the test with SN12C renal, in the test with SNB-19 CNS, in the test on SNB-75 CNS and with UO-31 renal was greater than 100 µM each time.
